Measurements: US6544995B1, “Use of cysteine derivatives for preparing a medicine for treating pathologies resulting from the formation of heterotrimeric G protein” (Societe de Conseils de Recherches et d'Applications …, priority 1998, dated 2003)
Where two headings read alike, the source gives them in different places. Where no end group is shown, it is not given here.

Legend:
MCF7 human tumour cells = test: In vitro cell proliferation of MCF-7 cells (WST1); format: cell-based; settings: 96 hours treatment, WST1 test, average of 2 experiments, read-out: IC50, inhibition of in vitro growth of MCF7 cells
Protocol: The cells were treated on day 1 for 96 hours with increasing concentrations of up to 50 μM of each of the compounds to be tested. After this period, quantification of cell proliferation is determined by a colorimetric test, based on the cleavage of the WST1 tetrazolum salt by the mitochondrial dehydrogenases in the viable cells, leading to the formation of formazan (Boehringer Mannheim, Meylan, France). These tests are carried out in duplicate with 8 determinations per concentration tested. For each compound to be tested, the values included in the linear part of the sigmoid were retained for linear regression analysis and used to estimate the inhibitory concentration (IC50).

[1] = tested on: production of cyclic AMP stimulated by VIP in MCF7 cells; test: Cyclic AMP production stimulated by VIP in MCF-7 cells; format: cell-based, human
heterotrimeric G protein = format: cell-based, human
adenylate cyclase [2] = settings: pretreatment 30 minutes with 30 μM; forskolin 10 μM
Protocol: (§1) MCF-7 cells (2.10^4 cells/well) seeded in 24-well plates are cultured for 5 days in Dulbecco's modified Eagle medium (Gibco-Brl, Cergy-Pontoise, France) completed with 10% of foetal calf serum inactivated by heating (Gibco-Brl, Cergy-Pontoise, France ), 50000 units/l of penicillin and 50 mg/l streptomycin (Gibco-Brl, Cergy-Pontoise, France), and 2 mM of glutamin (Gibco-Brl, Cergy-Pontoise, France). The culture medium is replaced after two washes with a medium without a serum completed or uncompleted with the specified agents for a time indicated in the different figures. Agents activating the production of cyclic AMP are then added at 37° C. The reaction is stopped after 30 minutes by suppressing the medium and rapidly adding 100 μl of a 0.1N solution of HCl. These extracts are frozen at −80° C. until they are used. The concentration of cAMP is measured using a commercial measurement kit (reference NEK033 from NEN, Les Ulis, France), following the manufacturer's instructions. The radioactivity is determined by a Gamma counter (Gamma Master-1277, LKB, Turku, Finland).

adenylate cyclase [3] = tested on: adenylate cyclase
Protocol: as §1

MAP kinase = MAP kinase activity in MCF7 cells; format: cell-based, human; settings: for activity of the MAP kinase after EGF stimulation: pretreatment 1 hour, then EGF for 5 minutes
Protocol: After 24 hours of culture, the cells are incubated for 48 hours in medium containing no serum in order to return the cells to a state of rest. The cells are then treated for 1 hour either with compound I or with PD98059 (Calbiochem, France Biochem, Meudon, France), a specific inhibitor of MAP kinase activation. The cells are then stimulated (or not) for 5 minutes with 12.5 ng/ml of epidermal growth factor (EGF). The reaction is stopped by two washes with PBS (Gibco-Brl, Cergy-Pontoise, France), at 4° C. containing neither calcium nor magnesium and by adding 150 μl of lysis buffer at 4° C. the composition of which is the following: 10 mM of tris, 150 mM of NaCl, 2 mM of EGTA, 2 mM of dithiothreitol, 1 mM of PMSF, 2 mM of orthovanadate, 10 μg/ml of leupeptin and 10 μg/ml of aprotinin. Measurement of the proteins contained in the extracts is carried out by Bradford's method (Biorad reagents, Ivry-Sur-Seine, France). […] The radioactivity is determined using a Packard scintillation counter (Tricarb 5000CA).

[4] = tested on: production of cyclic AMP stimulated by VIP in MCF7 cells; test: Cyclic AMP production stimulated by VIP in MCF-7 cells; format: cell-based, human; settings: for Inhibition at 30 μM of production of cyclic AMP stimulated by VIP / inhibition at 30 µM: MCF7 cells, compound 30 μM for 30 minutes, then 10^-8 M VIP, n=1; for inhibition at 30 µM: Homo sapiens, 0.5 h
Protocol: The cells are incubated for 30 minutes in the presence or not of compounds I, II, III and IV (30 μM) which are then stimulated by 10^−8 M of VIP. The quantification of cyclic AMP is determined by radioimmunoassay. The data represents the average±MSD (n=5 for the control and n=1 for the different compounds).

In the case of COc1ccccc1-c1cn2c(n1)C(CC1CCCCC1)N(C(=O)C(N)CSSCC(N)C(=O)N1CCn3cc(-c4ccccc4OC)nc3C1CC1CCCCC1)CC2 (stereo not drawn) [compound (I)], the IC50 (MCF7 human tumour cells) is reported as 9.4 µM, the “inhibition of accumulation of cyclic AMP stimulated by VIP at 100 μM” value ([1]; 100 μM, 30-minute pretreatment, VIP 10 nM) is reported as “almost complete inhibition” and the “inhibition of accumulation of cyclic AMP stimulated by VIP, concentration dependence” value ([1]; 30-minute pretreatment, VIP 10 nM) is reported as “in a concentration-dependent manner”. The “effect on response to VIP, treatment for an hour” value ([1]; 1 hour treatment) was “sufficient to modify the response to VIP”, the “effect on production of cyclic AMP, longer treatments” value ([1]; 8 hours and 24 hours treatment, VIP) was “continue to inhibit” and the “effect on production of cyclic AMP stimulated by choleric toxin” value (heterotrimeric G protein) was “greatly inhibited”. For the same molecule, the “effect on production of cyclic AMP induced by forskolin” value (adenylate cyclase [2]) was “does not modify”, the “effect on adenylate cyclase activity increased by prostaglandin E2” value (adenylate cyclase [3]; treatment for 30 minutes) was “inhibited” and the “activity of the MAP kinase after EGF stimulation” value (MAP kinase) was “halves”. The “basal activity of the MAP kinase” value (MAP kinase; treatment for 1 hour, no EGF) was “doubles” and the “Inhibition at 30 μM of production of cyclic AMP stimulated by VIP” value (“Inhibition at 30 μM” below) [4] was 86%.

With “EGF: epidermal growth factor used to stimulate MAP kinase [reference compound]” the “increase of MAP kinase activity” value (MAP kinase; stimulation by EGF for 5 minutes) was “approximately 7 times”.

Work on CCCC[C@H]1CN(C(=O)c2cccc3ccccc23)CCN1C[C@@H]1CSSC[C@H](N)C(=O)N1 [compound (VII)] yielded an inhibition at 30 µM [4] of 65%.

CCC(C)C1c2nc(-c3ccccc3OC)cn2CCN1C(=O)C(N)CSSCC(N)C(=O)N1CCn2cc(-c3ccccc3OC)nc2C1C(C)CC (stereo not drawn) [compound (VI), bis-1,1′-[7-(2-amino-1-oxo-3-thiopropyl)-2-(methoxyphenyl)-8-(1-methylpropyl)-5,6,7,8-tetrahydroimidazo[1.2a]pyrazine]] was tested, and the “Inhibition at 30 μM” value [4] was 52%.

“VIP: vasoactive intestinal peptide, ligand of a G protein-coupled receptor stimulating cyclic AMP synthesis (HSDAVFTDNYTRLRKQMAVKKYLNSILN; ends and bridges not checked; UniProt P01282 125-152, looked up) [reference compound]” was tested, and the “intracellular quantity of cyclic AMP” value ([4]; treatment of MCF-7 cells with VIP alone) was “increases the intracellular quantity of cyclic AMP in a concentration-dependent manner”.

With CC(C)CC1c2nc(-c3cccc4ccccc34)cn2CCN1C(=O)C(N)CSSCC(N)C(=O)N1CCn2cc(-c3cccc4ccccc34)nc2C1CC(C)C (stereo not drawn) [compound (II)] the IC50 (MCF7 human tumour cells) was 15 µM and the “Inhibition at 30 μM” value [4] was 71%.

CCCCC[C@H](O)/C=C/[C@H]1[C@H](O)CC(=O)[C@@H]1C/C=C\CCCC(=O)O [prostaglandin E2, reference compound] was tested, and the “activity of adenylate cyclase” value (adenylate cyclase [3]; prostaglandin E2 alone, MCF7 cells) was “greatly increased”.

For COc1cccc(-c2cc(=O)c3ccccc3o2)c1N [PD98059, reference compound], the “activity of the MAP kinase after EGF stimulation” value (MAP kinase) was “halves”.

In the case of COC(=O)[C@@H](CC(C)C)NC(=O)c1ccc(NC[C@@H](N)CS)cc1-c1ccccc1 [compound (IV)], the IC50 (MCF7 human tumour cells; Homo sapiens, MCF7) is reported as 34.6 µM and the inhibition at 30 µM [4] is reported as 52%.

CCCCC1c2nc(-c3ccccc3OC)cn2CCN1C(=O)C(N)CS (stereo not drawn) [compound (V), 7-(2-amino-1-oxo-3-thiopropyl)-8-butyl-2-(2-methoxyphenyl)-5,6,7,8-tetrahydroimidazo[1.2a]pyrazine] was tested, and the “Inhibition at 30 μM” value [4] was 68%.

For Cc1ccccc1-c1cn2c(n1)C(CC1CCCCC1)N(C(=O)C(N)CS)CC2 (stereo not drawn) [compound (III), 7-(2-amino-1-oxo-3-thiopropyl)-8-(cyclohexylmethyl)-2-(2-methylphenyl)-5,6,7,8-tetrahydroimidazo[1.2a]pyrazine], the IC50 (MCF7 human tumour cells) was 16.1 µM and the “Inhibition at 30 μM” value [4] was 59%.
